One assay relates to rituximab CAR-T cells. Nature of the assay: T-cell subtype distribution (CD45RO/CD62L staining), rituximab CAR-T cells. In kind it is cell-based, human. To be noted: 5 days of pharmacological modulation, vs vehicle. The text has this: FIG. 1A-G. Pharmacological inhibition of PI3K/AKT pathway modulates antigen-independent CAR-T cell activation. (A) Table of pharmacological inhibitors used during ex vivo expansion of rituximab CAR-T cells (left). Simplified schematic of the PI3K/AKT signaling axis where black arrows represent activation (right). (B) Activation marker expression by CAR^+ T cells in the absence of antigen stimulation after 5 days of pharmacological modulation. Data bars indicate the means of technical triplicates±1 S.D. The bars in FIG. 1B represent data from, untreated, vehicle, CAL-101, AZD5363, Rapamycin, MYCi975, and Betulin, respectively, from left to right. (C) TNF-α production CAR^+ T cells in the absence of antigen stimulation as quantified by intracellular flow cytometry. Data bars indicate the means of technical triplicates±1 S.D. The bars in FIG. 1B and FIG. 1C represent data from, untreated, vehicle, CAL-101, AZD5363, Rapamycin, MYCi975, and Betulin, respectively, from left to right. (D) Proliferation of CAR^+ T cells stained with CellTrace Violet (CTV) dye was assayed after a 4-day culture in the absence of target cells or exogenous cytokines. […] Statistical significance in panels B, C, and D was determined by two-tailed Student's t test with Sidak correction for multiple comparisons. * p<0.05, ** p<0.01, *** p<0.001, n.s. not statistically significant. […]
Antibody staining for flow-cytometry analysis. EGFRt expression was measured with biotinylated cetuximab (Eli Lilly; biotinylated in-house), followed by PE-conjugated streptavidin (Jackson ImmunoResearch #016-110-084). CAR expression was quantified by surface epitope staining using anti-Fc (Alexa Fluor 488, Jackson ImmunoResearch #709-546-098). Antigen-independent activation-marker expression of CAR-T cells was evaluated by antibody staining for CD137 (PE/Cy7, clone 4B4-1, BioLegend #309818), and PD-1 (FITC, clone EH12.2H7, BioLegend #329904) on Days 18 (i.e., 18 days after Dynabead addition and 11 days after Dynabead removal) and after 5-6 days of inhibitor culture (FIG. 1, FIG. 3). […]

The test system of another assay is Raji target cells. In words: 24-hr lysis assay of inhibitor-treated rituximab CD20 CAR-T cells against Raji. It counts as cell-based. To be noted: three E:T ratios, vs vehicle-treated. The text has this:
FIG. 1A-G. Pharmacological inhibition of PI3K/AKT pathway modulates antigen-independent CAR-T cell activation. (A) Table of pharmacological inhibitors used during ex vivo expansion of rituximab CAR-T cells (left). Simplified schematic of the PI3K/AKT signaling axis where black arrows represent activation (right). (B) Activation marker expression by CAR^+ T cells in the absence of antigen stimulation after 5 days of pharmacological modulation. Data bars indicate the means of technical triplicates±1 S.D. The bars in FIG. 1B represent data from, untreated, vehicle, CAL-101, AZD5363, Rapamycin, MYCi975, and Betulin, respectively, from left to right. (C) TNF-α production CAR^+ T cells in the absence of antigen stimulation as quantified by intracellular flow cytometry. Data bars indicate the means of technical triplicates±1 S.D. The bars in FIG. 1B and FIG. 1C represent data from, untreated, vehicle, CAL-101, AZD5363, Rapamycin, MYCi975, and Betulin, respectively, from left to right. (D) Proliferation of CAR^+ T cells stained with CellTrace Violet (CTV) dye was assayed after a 4-day culture in the absence of target cells or exogenous cytokines. Data shown in the histogram correspond to one of technical triplicates shown in the bar graph. The bars FIG. 1D represent data from, EGFRt, untreated, vehicle, CAL-101, AZD5363, Rapamycin, MYCi975, and Betulin, respectively, from left to right. (E) % distribution of T-cell subtypes in CAR^+ T cells after 5 days of pharmacological modulation. Data bars indicate the means of technical triplicates±1 S.D. (F) Rituximab CAR-T cell fold expansion after 6 days of inhibitor culture was tracked. […] Statistical significance in panels B, C, and D was determined by two-tailed Student's t test with Sidak correction for multiple comparisons. * p<0.05, ** p<0.01, *** p<0.001, n.s. not statistically significant.
Cytotoxicity assay with Raji cells. […] Remaining target cells were quantified by MACSQuant VYB flow cytometer 24-hr post co-incubation.

The subject of the next assay is Raji tumor xenografts. In words: Raji xenograft in NSG mice treated with inhibitor-preconditioned rituximab CAR-T cells. In kind it is in vivo. To be noted: NSG mice, Raji i.v., preconditioned rituximab CAR-T cells, bioluminescence, vs vehicle control. The procedure:
FIG. 2A-C. […] (A) Tumor signal (in photons/sec/cm^2/sr) in individual animals as quantified by bioluminescence imaging. […] Statistical significance was determined by Mann-Whitney U test with Holm-Sidak correction for multiple comparisons. * p<0.05, n.s. not statistically significant. (B) Kaplan-Meier survival curve (top) and table of median survival period in days (bottom). (C) Frequency of human CD45+EGFRt+ cell in peripheral blood collected from mice on day 8 after first dose of T-cell infusion. Statistical significance was determined by two-tailed Student's t test with Sidak correction for multiple comparisons. * p<0.05, ** p<0.01.
In vivo studies. Six- to eight-week-old NOD/SCID/IL-2Rγ^null (NSG) mice were obtained from UCLA Department of Radiation and Oncology. The protocol was approved by UCLA Institutional Animal Care and Used Committee. […] Details of the dose and timing of tumor injection, T-cell injection, and tumor re-challenge are indicated in the text and figures. Tumor progression/regression was monitored with an IVIS Illumina III LT Imaging System (PerkinElmer). Blood samples were harvested via retro-orbital bleeding 3 days post T-cell injection and every 10-13 days thereafter. Mice were euthanized at the humane endpoint. Bone marrow, spleen and liver were collected after euthanasia. Tissues were ground and passed through a 100-μm filter followed by red-blood-cell lysis prior to flow-cytometry analysis.

Take `C=C(C)[C@@H]1CC[C@]2(CO)CC[C@]3(C)[C@H](CC[C@@H]4[C@@]5(C)CC[C@H](O)C(C)(C)[C@@H]5CC[C@]43C)[C@@H]12` [betulin, Betulin]: the “fraction of naïve and stem-cell memory T (Tn/scm) cells / T-cell differentiation” value in the assay with rituximab CAR-T cells is on record as “accelerated T-cell differentiation”. Also, in the assay on Raji target cells, the “lysis of Raji tumor cells” value is “clustered together”. The “tumor outgrowth / tumor progression” value in the assay on Raji tumor xenografts was “accelerated tumor progression”.

For MYCi975, in the assay with rituximab CAR-T cells, the “fraction of naïve and stem-cell memory T (Tn/scm) cells / T-cell differentiation” value is on record as “accelerated T-cell differentiation”. The “lysis of Raji tumor cells” value with Raji target cells was “clustered together”. In addition, the “tumor outgrowth / tumor progression” value in the assay on Raji tumor xenografts was “accelerated tumor progression”.

The values are drawn from patent US20250345426A1, “METHODS FOR MAKING AND USING THERAPEUTIC CELLS” (THE REGENTS OF THE UNIVERSITY OF CALIFORNIA, priority 2022, published 2025).
